From the supplement of paper PMC10307832

Key:
Experiment in all cases: relative viability (nuclei count vs DMSO), 5 days (fraction); higher = more cells survive
Bexarotene + Vorinostat = compound: C=C(c1ccc(C(=O)O)cc1)c1cc2c(cc1C)C(C)(C)CCC2(C)C [Bexarotene] + O=C(CCCCCCC(=O)Nc1ccccc1)NO [Vorinostat] (partner 1 µM)
Procedure, shortened: (§1)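 Each reported value is a median over duplicate plates. It expresses relative viability: treated-well nuclei count divided by vehicle-well nuclei count. Lung cancer cell lines in 1536-well plates were dosed by pin tool a day after seeding, alone with one drug or with a fixed anchor-drug dose plus five library-drug doses (not always all listed) in √10 steps, and nuclei were counted after 5 days.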

Bexarotene + Dasatinib = compound: C=C(c1ccc(C(=O)O)cc1)c1cc2c(cc1C)C(C)(C)CCC2(C)C [Bexarotene] + Cc1nc(Nc2ncc(C(=O)Nc3c(C)cccc3Cl)s2)cc(N2CCN(CCO)CC2)n1 [Dasatinib] (partner 0.075 µM)
Procedure, shortened: as §1

Bexarotene + Pictilisib = compound: C=C(c1ccc(C(=O)O)cc1)c1cc2c(cc1C)C(C)(C)CCC2(C)C [Bexarotene] + CS(=O)(=O)N1CCN(Cc2cc3nc(-c4cccc5[nH]ncc45)nc(N4CCOCC4)c3s2)CC1 [Pictilisib] (partner 1 µM)
Procedure, shortened: as §1

Bexarotene + Crizotinib = compound: C=C(c1ccc(C(=O)O)cc1)c1cc2c(cc1C)C(C)(C)CCC2(C)C [Bexarotene] + C[C@@H](Oc1cc(-c2cnn(C3CCNCC3)c2)cnc1N)c1c(Cl)ccc(F)c1Cl [Crizotinib] (partner 1 µM)
Procedure, shortened: as §1

Cell Line | relative viability (Bexarotene + Vorinostat; first compound 0.08 µM) | relative viability (Bexarotene + Vorinostat; first compound 0.253 µM) | relative viability (Bexarotene + Vorinostat; first compound 0.8 µM) | relative viability (Bexarotene + Vorinostat; first compound 2.53 µM) | relative viability (Bexarotene + Vorinostat; first compound 8 µM) | relative viability (Bexarotene + Dasatinib; first compound 0.08 µM) | relative viability (Bexarotene + Dasatinib; first compound 0.253 µM) | relative viability (Bexarotene + Dasatinib; first compound 0.8 µM) | relative viability (Bexarotene + Dasatinib; first compound 2.53 µM) | relative viability (Bexarotene + Dasatinib; first compound 8 µM) | relative viability (Bexarotene + Pictilisib; first compound 0.08 µM) | relative viability (Bexarotene + Pictilisib; first compound 0.253 µM) | relative viability (Bexarotene + Pictilisib; first compound 0.8 µM) | relative viability (Bexarotene + Pictilisib; first compound 2.53 µM) | relative viability (Bexarotene + Pictilisib; first compound 8 µM) | relative viability (Bexarotene + Crizotinib; first compound 0.08 µM) | relative viability (Bexarotene + Crizotinib; first compound 0.253 µM) | relative viability (Bexarotene + Crizotinib; first compound 0.8 µM) | relative viability (Bexarotene + Crizotinib; first compound 2.53 µM) | relative viability (Bexarotene + Crizotinib; first compound 8 µM)
NCI-H650 | 0.542 | 0.497 | 0.429 | 0.457 | 0.467 | 0.475 | 0.562 | 0.441 | 0.408 | 0.412 | 0.946 | 0.939 | 0.851 | 0.753 | 0.858 | 0.749 | 0.613 | 0.739 | 0.615 | 0.6
NCI-H661 | 0.876 | 0.814 | 0.878 | 0.861 | 0.808 | 1.14 | 0.89 | 0.837 | 0.838 | 0.801 | 0.438 | 0.362 | 0.397 | 0.362 | 0.35 | 0.866 | 1.13 | 1.02 | 0.96 | 1.04
NCI-H727 | 1.46 | 1.16 | 1.26 | 1.18 | 0.971 | 0.405 | 0.311 | 0.388 | 0.316 | 0.37 | 0.463 | 0.36 | 0.348 | 0.346 | 0.355 | 0.856 | 0.912 | 0.87 | 0.677 | 0.708
NCI-H838 | 0.764 | 0.767 | 0.742 | 0.585 | 0.693 | 0.299 | 0.301 | 0.339 | 0.346 | 0.381 | 0.557 | 0.5 | 0.51 | 0.638 | 0.578 | 0.929 | 0.884 | 0.891 | 0.843 | 0.866
NCI-H1355 | 0.672 | 0.724 | 0.584 | 0.604 | 0.619 | 0.744 | 0.814 | 0.55 | 0.627 | 0.707 | 0.604 | 0.622 | 0.358 | 0.561 | 0.486 | 1.14 | 1.11 | 1.03 | 1.14 | 1.13
NCI-H1437 | 0.814 | 1.01 | 0.886 | 0.872 | 0.84 | 0.445 | 0.6 | 0.567 | 0.411 | 0.434 | 0.572 | 0.447 | 0.56 | 0.601 | 0.542 | 0.92 | 0.959 | 0.918 | 0.922 | 0.909
NCI-H1650 | 0.524 | 0.548 | 0.579 | 0.676 | 0.736 | 0.383 | 0.38 | 0.408 | 0.333 | 0.296 | 0.669 | 0.544 | 0.527 | 0.537 | 0.527 | 0.842 | 0.927 | 0.788 | 1.04 | 0.777
NCI-H1651 | 0.693 | 0.604 | 0.62 | 0.602 | 0.608 | 0.518 | 0.551 | 0.363 | 0.458 | 0.374 | 0.837 | 0.52 | 0.723 | 0.674 | 0.593 | 0.936 | 0.89 | 0.952 | 0.968 | 0.893
